Measurements reported in PubChem BioAssay (NCI).
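In this assay, cells in 96-well plates receive the compound at five concentrations for 48 hours. Endpoints are linearly interpolated between the surrounding concentrations. The concentration for 50% growth inhibition is given as GI50. TGI: concentration producing complete growth inhibition.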

Tests used:
Assay in all cases: NCI anticancer screen, dose series, 48 h
786-0 renal = system: 786-0 renal
A498 renal = system: A498 renal
A549 NSCLC = system: A549 NSCLC
ACHN renal = system: ACHN renal
CAKI-1 renal = system: CAKI-1 renal
COLO 205 colon = system: COLO 205 colon
DU-145 prostate = system: DU-145 prostate
EKVX NSCLC = system: EKVX NSCLC
HCC-2998 colon = system: HCC-2998 colon
HCT-116 colon = system: HCT-116 colon
HCT-15 colon = system: HCT-15 colon
HL-60(TB) leukemia = system: HL-60(TB) leukemia
HOP-62 NSCLC = system: HOP-62 NSCLC
HOP-92 NSCLC = system: HOP-92 NSCLC
HS 578T breast = system: HS 578T breast
HT29 colon = system: HT29 colon
IGROV1 ovarian = system: IGROV1 ovarian
K-562 leukemia = system: K-562 leukemia
KM12 colon = system: KM12 colon
LOX IMVI melanoma = system: LOX IMVI melanoma
M14 melanoma = system: M14 melanoma
MALME-3M melanoma = system: MALME-3M melanoma
MCF7 breast = system: MCF7 breast
MDA-MB-231 breast = system: MDA-MB-231 breast
MDA-MB-435 = system: MDA-MB-435
MOLT-4 leukemia = system: MOLT-4 leukemia
NCI-H226 lung = system: NCI-H226 lung
NCI-H23 lung = system: NCI-H23 lung
NCI-H460 lung = system: NCI-H460 lung
NCI-H522 lung = system: NCI-H522 lung
NCI/ADR-RES ovarian = system: NCI/ADR-RES ovarian
OVCAR-3 ovarian = system: OVCAR-3 ovarian
OVCAR-5 ovarian = system: OVCAR-5 ovarian
OVCAR-8 ovarian = system: OVCAR-8 ovarian
PC-3 prostate = system: PC-3 prostate
RPMI-8226 leukemia = system: RPMI-8226 leukemia
RXF 393 renal = system: RXF 393 renal
SF-268 CNS = system: SF-268 CNS
SF-295 CNS = system: SF-295 CNS
SF-539 CNS = system: SF-539 CNS
SK-MEL-28 melanoma = system: SK-MEL-28 melanoma
SK-MEL-5 melanoma = system: SK-MEL-5 melanoma
SK-OV-3 ovarian = system: SK-OV-3 ovarian
SN12C renal = system: SN12C renal
SNB-19 CNS = system: SNB-19 CNS
SNB-75 CNS = system: SNB-75 CNS
SR leukemia = system: SR leukemia
SW-620 colon = system: SW-620 colon
T-47D breast = system: T-47D breast
TK-10 renal = system: TK-10 renal
U251 CNS = system: U251 CNS
UACC-257 melanoma = system: UACC-257 melanoma
UACC-62 melanoma = system: UACC-62 melanoma
UO-31 renal = system: UO-31 renal
SK-MEL-2 melanoma = system: SK-MEL-2 melanoma

## NC1=CC(=O)C(=O)c2ccccc21
786-0 renal
  GI50: 25 µM
  TGI: 79.8 µM
A498 renal
  GI50: 79.2 µM
  TGI: > 100 µM
A549 NSCLC
  GI50: 28.2 µM
  TGI: 97.6 µM
ACHN renal
  GI50: 16.2 µM
  TGI: 50.1 µM
CAKI-1 renal
  GI50: 19.7 µM
  TGI: 53.3 µM
COLO 205 colon
  GI50: 26.6 µM
  TGI: > 100 µM
DU-145 prostate
  GI50: 17.9 µM
  TGI: 45.4 µM
EKVX NSCLC
  GI50: 18.3 µM
  TGI: 55.8 µM
HCC-2998 colon
  GI50: 43.9 µM
  TGI: > 100 µM
HCT-116 colon
  GI50: 12.7 µM
  TGI: 28 µM
HCT-15 colon
  GI50: 25.1 µM
  TGI: > 100 µM
HL-60(TB) leukemia
  GI50: 11.9 µM
  TGI: 43.8 µM
HOP-62 NSCLC
  GI50: 18 µM
  TGI: 40.7 µM
HOP-92 NSCLC
  GI50: 30 µM
  TGI: 93.8 µM
HS 578T breast
  GI50: 12.1 µM
  TGI: 40.6 µM
HT29 colon
  GI50: 31.9 µM
  TGI: 94.3 µM
IGROV1 ovarian
  GI50: 19.7 µM
  TGI: 39.5 µM
K-562 leukemia
  GI50: 20.6 µM
  TGI: > 100 µM
KM12 colon
  GI50: 18.2 µM
  TGI: 53.4 µM
LOX IMVI melanoma
  GI50: 15.9 µM
  TGI: 39.7 µM
M14 melanoma
  GI50: 9.59 µM
  TGI: 21.3 µM
MALME-3M melanoma
  GI50: 11 µM
  TGI: 25.7 µM
MCF7 breast
  GI50: 13.2 µM
  TGI: 29.8 µM
MDA-MB-231 breast
  GI50: 11 µM
  TGI: 30.9 µM
MDA-MB-435
  GI50: 1.84 µM
  TGI: 3.41 µM
MOLT-4 leukemia
  GI50: 22.4 µM
  TGI: > 100 µM
NCI-H226 lung
  GI50: 18.8 µM
  TGI: 42.1 µM
NCI-H23 lung
  GI50: 13.2 µM
  TGI: 34.6 µM
NCI-H460 lung
  GI50: 33.8 µM
  TGI: > 100 µM
NCI-H522 lung
  GI50: 16.6 µM
  TGI: 38.2 µM
NCI/ADR-RES ovarian
  GI50: 12.7 µM
  TGI: 53.3 µM
OVCAR-3 ovarian
  GI50: 12.4 µM
  TGI: 29.9 µM
OVCAR-5 ovarian
  GI50: 18.9 µM
  TGI: 41.1 µM
OVCAR-8 ovarian
  GI50: 14.8 µM
  TGI: 47.3 µM
PC-3 prostate
  GI50: 17.9 µM
  TGI: 70.5 µM
RPMI-8226 leukemia
  GI50: 11.2 µM
  TGI: 53.2 µM
RXF 393 renal
  GI50: 24.3 µM
  TGI: 71.5 µM
SF-268 CNS
  GI50: 18.8 µM
  TGI: 62.3 µM
SF-295 CNS
  GI50: 12.7 µM
  TGI: 33.4 µM
SF-539 CNS
  GI50: 21.5 µM
  TGI: 40.9 µM
SK-MEL-28 melanoma
  GI50: 8.81 µM
  TGI: 22.3 µM
SK-MEL-5 melanoma
  GI50: 14.7 µM
  TGI: 28 µM
SK-OV-3 ovarian
  GI50: 47.6 µM
  TGI: > 100 µM
SN12C renal
  GI50: 2.77 µM
  TGI: 17.4 µM
SNB-19 CNS
  GI50: 20.4 µM
  TGI: 79.9 µM
SNB-75 CNS
  GI50: 13.8 µM
  TGI: 27.1 µM
SR leukemia
  GI50: 23.3 µM
  TGI: > 100 µM
SW-620 colon
  GI50: 17.6 µM
  TGI: 38.4 µM
T-47D breast
  GI50: 14.2 µM
  TGI: 46.2 µM
TK-10 renal
  GI50: 16.7 µM
  TGI: 47.5 µM
U251 CNS
  GI50: 19.3 µM
  TGI: 46.4 µM
UACC-257 melanoma
  GI50: 5.63 µM
  TGI: 18.2 µM
UACC-62 melanoma
  GI50: 3.33 µM
  TGI: 15.7 µM
UO-31 renal
  GI50: 11.5 µM
  TGI: 35.6 µM

## O=C(C[n+]1ccn(CC(OCc2ccc(Cl)cc2Cl)c2ccc(Cl)cc2Cl)c1)c1ccc(F)cc1 (configuration not stated)
A498 renal
  GI50: 1.42 µM
  TGI: 3.36 µM
CAKI-1 renal
  GI50: 2.05 µM
  TGI: 18.3 µM
DU-145 prostate
  GI50: 1.66 µM
  TGI: 3.09 µM
EKVX NSCLC
  GI50: 1.11 µM
  TGI: 2.4 µM
HCT-15 colon
  GI50: 4.65 µM
  TGI: 67.6 µM
HOP-92 NSCLC
  GI50: 1.27 µM
  TGI: 2.84 µM
HS 578T breast
  GI50: 1.6 µM
  TGI: 3.72 µM
MDA-MB-435
  GI50: 1.31 µM
  TGI: 2.72 µM
NCI/ADR-RES ovarian
  GI50: 16.5 µM
  TGI: 57.5 µM
PC-3 prostate
  GI50: 1.55 µM
  TGI: 2.91 µM
RXF 393 renal
  GI50: 1.81 µM
  TGI: 3.31 µM
SF-268 CNS
  GI50: 1.44 µM
  TGI: 3.09 µM
SF-295 CNS
  GI50: 1.63 µM
  TGI: 3.19 µM
SK-MEL-2 melanoma
  GI50: 1.65 µM
  TGI: 3.11 µM
SK-MEL-28 melanoma
  GI50: 1.7 µM
  TGI: 3.12 µM
UACC-257 melanoma
  GI50: 1.43 µM
  TGI: 2.8 µM
UO-31 renal
  GI50: 2.43 µM
  TGI: 17 µM
